Data on 5 compounds can be found in PMC10816640, “Discovery of Novel Diphenyl Acrylonitrile Derivatives That Promote Adult Rats’ Hippocampal Neurogenesis” (International Journal of Molecular Sciences, 2024).

Each structure is given as a SMILES string. “Also recorded” adds a separate entry of the source.

As usually defined, the IC50 is the concentration needed to halve the response being measured. A high value points to weaker potency.

Series [1] concerns progenitor cells in the rodents’ hippocampi. Description: Proliferation stage of neurogenesis: BrdU labeling, rats sacrificed 24 h after BrdU. In kind it is in vivo, rat. As to conditions: i.p. 4.0 mg/kg/day for 28 days, BrdU pulse, vs vehicle; for proliferation-promoting activity (number of BrdU+ positive cells): nine-week-old rats (n = 4). The text has this:
(§1) Previous in vitro or in vivo studies mainly focused on stimulating the proliferation effect of the small molecules. In this study, a two-step protocol was employed. First, the stimulating function of the compounds on progenitor cells in the rodents’ hippocampi was examined with using bromodeoxyuridine (BrdU) labeling. Next, the potent compounds were further screened to ascertain their ability to promote the differentiation of neural progenitor cells, as confirmed by dual labeling of BrdU and NeuN (neuronal nuclear antigen).
Adult rats were administered intraperitoneally with the prepared compounds at a dose of 4.0 mg/kg/day for a period of 28 days, followed by a BrdU pulse. After 24 h, the rats were sacrificed, and their brain tissues were isolated and cryosectioned. Immunohistochemical staining was performed and eight brain tissue slices were randomly selected for statistical analyzing.
Eight-week-old (or 10-week-old) SD male rats purchased from Peking University Health Science Center were acclimatized for one week at the Beijing Institute of Technology. All experimental protocols strictly adhered to the regulations governing the management of experimental animals and the animal ethics policy of the Beijing Institute of Technology.
(§2) The compounds were dissolved in reagent-grade soybean oil containing 10% ethanol to reach a drug concentration of 2.8 mg/mL. The rats in the experimental group received intraperitoneal injections of the compounds at a dose of 4.0 mg/kg/d for 28 consecutive days. As a control, the vehicle group was administered injections of reagent-grade soybean oil containing 10% ethanol. BrdU (Sigma-Aldrich, St. louis, MA, USA) solution, prepared in physiological saline at a concentration of 10 mg/mL, was administered to all rats on day 29. Each rat received two injections of BrdU at a dosage of 50 mg/kg, with a 2 h interval between injections. The rats were euthanized 24 h (or 28 days) after the final BrdU injection.
(§3) Two or four rats per group were anesthetized using pentobarbital sodium (70 mg/kg) and subsequently perfused with physiological saline. The brain tissue was carefully dissected and fixed in 4% paraformaldehyde at 4 °C for one week. Next, the brain tissue underwent dehydration using a phosphate-buffered saline (PBS) solution containing 20% to 30% sucrose. Finally, the brain tissue was cryosectioned into slices with a thickness of 30 μm, and eight slices were randomly selected for further analysis.
The assessment of new cell proliferation was conducted using BrdU staining. To eliminate endogenous peroxides, sections were exposed to 1% H2O2 for 30 min at RT. Cellular denaturation was achieved by treating the sections with 2 M HCl at 37 °C for 1 h, followed by rinsing in 0.1 M borate buffer (pH 8.5). Tissue sections were subjected to blocking in a solution consisting of 5% goat serum and 0.5% Triton X-100 in PBS at RT for 1–2 h. The specimens were then incubated overnight at 4 °C with a mouse primary antibody specific to BrdU (diluted at 1:500; Millipore, Billerica, MA, USA). Subsequently, the DAB kit was employed for 2 h of incubation at RT.
(§4) The data were presented as mean ± SEM (standard error of the mean) and visualized using GRAPHPAD PRISM 6 (Graphpad Software, La Jolla, CA, USA). Statistical analysis was conducted utilizing one-way analysis of variance (ANOVA) followed by a post hoc test. Subsequent to the statistical treatment, the observed discrepancies were determined to be statistically significant (p < 0.05).
For orientation: Uptake of a labelled nucleoside into DNA is a usual measure of proliferation.

In series [2] the test system is newborn neural progenitor cells (differentiation into mature neurons). Kind of series: Differentiation stage of neurogenesis: NeuN/BrdU double staining, rats sacrificed 28 days after BrdU. It counts as in vivo, rat. As to conditions: for neurogenesis-promoting activity (number of NeuN+ and BrdU+ cells), differentiation stage: nine-week-old rats (n = 4), i.p. 4.0 mg/kg.
Excerpt: as §1
The study employed a rat model, wherein nine-week-old rats were administered intraperitoneally with the compound at a dose of 4.0 mg/kg/day for 28 days and then treated with a pulse of BrdU. Instead of sacrificing the rats 24 h after the BrdU injections, the rats were sacrificed after another 28 days. The brains were then isolated and cryosectioned. Eight randomly selected slices were subjected to immunohistochemical staining. This staining enabled the co-localization of the BrdU-incorporated cells with the NeuN marker, enabling the definition of the compounds that could promote the differentiation of newborn neural progenitor cells into mature functional neurons.
as §2, §3
The differentiation process of NPCs was visualized through the utilization of the NeuN/BrdU double staining technique. Tissue sections were subjected to an incubation period in a blocking buffer at RT for 1 to 2 h. The specimens were exposed to a rabbit anti-NeuN antibody (diluted at 1:500, Abcam, Cambridge, MA, UK) and a primary antibody, BrdU (diluted at 1:500), overnight at 4 °C. Afterwards, the sections were treated with anti-mouse 488 and anti-rabbit TRITC secondary antibodies for 2 h at RT.
as §4

Series [3] relates to hCMEC/D3 cells. Kind of series: CCK-8 assay for cytotoxicity. The following applies: hCMEC/D3 cell lines, CCK-8, 48 h incubation. In kind it is cell-based. On the procedure: hCMEC/D3 cells were obtained from the Cell Resource Center, Peking Union Medical College (PCRC). All cells were acquired in 2023 and were maintained in culture for no more than 10 continuous passages. The cells were cultured in DMEM (11995065, Gibco, Grand Island, NY, USA) supplemented with 10% FBS (164210-50, Procell, Austin, TX, USA), 100 units of penicillin, and […] of streptomycin (PB180120, Procell).
hCMEC/D3 cells (5 × 10^3) were seeded into 96-well plates in 90 μL of DMEM medium containing 10% fetal bovine serum per well. All test compounds were formulated as 10 mM stock solutions in DMSO (final concentration ≤ 0.5%). After overnight incubation, the test compound stock solution was diluted with DMEM medium containing 10% fetal bovine serum to every target concentration, and 10 μL of each was added to each well. Three parallel experiments were set up for each compound. After incubation for 48 h, 10 μL of CCK-8 reagent was added to each well in sequence according to the manufacturer’s instructions. After incubating in a 37 °C incubator for 1–2 h, the absorbance was measured at a wavelength of 450 nm, using a wavelength of 620 nm as a reference, and detected with a ThermoScientific Multiskan FC (Thermo Fisher Scientific). The graphs are representative results, and this experiment was independently repeated three times with similar results.
Background: Formazan colour is commonly taken as a measure of viable cells.

The test system of series [4] is newborn cells in the subgranular zone. Kind of series: BrdU+ newborn cells, rats sacrificed 28 days after BrdU. In kind it is in vivo, rat. The following applies: nine-week-old rats (n = 2), i.p. 4.0 mg/kg/day for 28 days, BrdU pulse, Figure 7A. The protocol: The study employed a rat model, wherein nine-week-old rats were administered intraperitoneally with the compound at a dose of 4.0 mg/kg/day for 28 days and then treated with a pulse of BrdU. Instead of sacrificing the rats 24 h after the BrdU injections, the rats were sacrificed after another 28 days. The brains were then isolated and cryosectioned. Eight randomly selected slices were subjected to immunohistochemical staining. This staining enabled the co-localization of the BrdU-incorporated cells with the NeuN marker, enabling the definition of the compounds that could promote the differentiation of newborn neural progenitor cells into mature functional neurons. The compounds were dissolved in reagent-grade soybean oil containing 10% ethanol to reach a drug concentration of 2.8 mg/mL. The rats in the experimental group received intraperitoneal injections of the compounds at a dose of 4.0 mg/kg/d for 28 consecutive days. As a control, the vehicle group was administered injections of reagent-grade soybean oil containing 10% ethanol. BrdU (Sigma-Aldrich, St. louis, MA, USA) solution, prepared in physiological saline at a concentration of 10 mg/mL, was administered to all rats on day 29. Each rat received two injections of BrdU at a dosage of 50 mg/kg, with a 2 h interval between injections. The rats were euthanized 24 h (or 28 days) after the final BrdU injection. Two or four rats per group were anesthetized using pentobarbital sodium (70 mg/kg) and subsequently perfused with physiological saline. The brain tissue was carefully dissected and fixed in 4% paraformaldehyde at 4 °C for one week. Next, the brain tissue underwent dehydration using a phosphate-buffered saline (PBS) solution containing 20% to 30% sucrose. Finally, the brain tissue was cryosectioned into slices with a thickness of 30 μm, and eight slices were randomly selected for further analysis. The assessment of new cell proliferation was conducted using BrdU staining. To eliminate endogenous peroxides, sections were exposed to 1% H2O2 for 30 min at RT. Cellular denaturation was achieved by treating the sections with 2 M HCl at 37 °C for 1 h, followed by rinsing in 0.1 M borate buffer (pH 8.5). Tissue sections were subjected to blocking in a solution consisting of 5% goat serum and 0.5% Triton X-100 in PBS at RT for 1–2 h. The specimens were then incubated overnight at 4 °C with a mouse primary antibody specific to BrdU (diluted at 1:500; Millipore, Billerica, MA, USA). Subsequently, the DAB kit was employed for 2 h of incubation at RT. The differentiation process of NPCs was visualized through the utilization of the NeuN/BrdU double staining technique. Tissue sections were subjected to an incubation period in a blocking buffer at RT for 1 to 2 h. The specimens were exposed to a rabbit anti-NeuN antibody (diluted at 1:500, Abcam, Cambridge, MA, UK) and a primary antibody, BrdU (diluted at 1:500), overnight at 4 °C. Afterwards, the sections were treated with anti-mouse 488 and anti-rabbit TRITC secondary antibodies for 2 h at RT. The data were presented as mean ± SEM (standard error of the mean) and visualized using GRAPHPAD PRISM 6 (Graphpad Software, La Jolla, CA, USA). Statistical analysis was conducted utilizing one-way analysis of variance (ANOVA) followed by a post hoc test. Subsequent to the statistical treatment, the observed discrepancies were determined to be statistically significant (p < 0.05).

Series [5] concerns progenitors in rodents’ hippocampi. On the set-up: method as in PMID 28525839. The following applies: cited from earlier work.

Take `CC(=O)Nc1ccc(/C(C#N)=C/c2ccc3c(c2)OCO3)cc1` [29a, (Z)-N-(4-(2-(benzo[d][1, 3]dioxol-5-yl)-1-cyanovinyl)phenyl)acetamide]: the “proliferation-promoting activity (number of BrdU+ positive cells)” value in series [1] (Figure 8) is “inactive”. Also, in series [2] (Figure 9, 4 mg/kg), the “neurogenesis-promoting activity (number of NeuN+ and BrdU+ cells), differentiation stage” value is on record as “did not show activity; also recorded: no significant neurogenesis-promoting activity”.
For `CC(=O)Nc1ccc(/C=C(\C#N)c2ccc3c(c2)OCO3)cc1` [32a, (Z)-N-(4-(2-(benzo[d][1, 3]dioxol-5-yl)-2-cyanovinyl)phenyl)acetamide], in series [1] (Figure 8, 4 mg/kg/day), the “proliferation-promoting activity (number of BrdU+ positive cells)” value was “significant proliferation-promoting activity; also recorded: exhibited proliferative activity”. Also, in series [2] (Figure 9, 4 mg/kg), the “neurogenesis-promoting activity (number of NeuN+ and BrdU+ cells), differentiation stage” value was “significant neurogenesis-promoting activity; also recorded: better activity than the clinical drug NSI-189”. The IC50 in series [3] came out at 109 ± 12.9 µM.
For the compound `CC(C)NC(=O)c1ccc(/C=C/c2ccc3c(c2)OCO3)cc1` [39b, (E)-4-(2-(benzo[d][1, 3]dioxol-5-yl)vinyl)-N-isopropylbenzamide], the “proliferation-promoting activity (number of BrdU+ newborn cells)” value in series [1] (eleven-week-old rats (n = 2), Figures 3-6, 4 mg/kg/day) was “significant proliferation-promoting activity; also recorded: activity comparable to that found in amides 8c, 8d, and 29b”. Also, the “proliferative activity over the longer 28 day period (number of BrdU+ cells)” value in series [4] is reported as “could promote the proliferation of progenitors”. In addition, the “neurogenesis-promoting activity (number of NeuN+ and BrdU+ cells, newborn neurons)” value in series [2] (nine-week-old rats (n = 2), i.p. 4.0 mg/kg/day for 28 days, BrdU pulse, Figure 7B) is listed as “ranked second in terms of activity, without statistical significance”.
In the case of `CC(C)CCNc1ncccc1C(=O)N1CCN(Cc2ccccc2)CC1` [NSI-189, reference compound], the “proliferation-promoting activity (number of BrdU+ positive cells)” value in series [1] (Figure 8) is “inactive”. Moreover, in series [2] (Figure 9), the “neurogenesis-promoting activity (number of NeuN+ and BrdU+ cells), differentiation stage” value is reported as “no significant neurogenesis-promoting activity”.
Turning to `CC(=O)Nc1ccc(/C=C/c2ccc3c(c2)OCO3)cc1` [WS-6, N-trans-3′,4′-methylenedioxystilben-4-yl acetamide], the “promoting the proliferation of progenitors and differentiation into neurons” value in series [5] is “excellent capacity”.
